According to US12122761B2, “2-azaspiro[3.4]octane derivatives as M4 agonists” (NOVARTIS AG, priority 2019, dated 2024):

Assays:
[1] = target: T1, human cloned CHRM5 receptor (M5_CHO) (Homo sapiens, UniProt P08912); assay: CHRM5 Ca++ Flux Assay (agonist mode, FDSS 7000EX); assay type: cell-based; conditions: for Emax: Percent Activity measured to EC100 of Carbachol, read-out: M5 FDSS PA; for EC50: agonist mode, geometric mean if tested more than once, read-out: M5 FDSS EC50
T1 construct: expressed in transfected cells; host or cells: CHO (M5_CHO)
T1 sequence (P08912 1-532): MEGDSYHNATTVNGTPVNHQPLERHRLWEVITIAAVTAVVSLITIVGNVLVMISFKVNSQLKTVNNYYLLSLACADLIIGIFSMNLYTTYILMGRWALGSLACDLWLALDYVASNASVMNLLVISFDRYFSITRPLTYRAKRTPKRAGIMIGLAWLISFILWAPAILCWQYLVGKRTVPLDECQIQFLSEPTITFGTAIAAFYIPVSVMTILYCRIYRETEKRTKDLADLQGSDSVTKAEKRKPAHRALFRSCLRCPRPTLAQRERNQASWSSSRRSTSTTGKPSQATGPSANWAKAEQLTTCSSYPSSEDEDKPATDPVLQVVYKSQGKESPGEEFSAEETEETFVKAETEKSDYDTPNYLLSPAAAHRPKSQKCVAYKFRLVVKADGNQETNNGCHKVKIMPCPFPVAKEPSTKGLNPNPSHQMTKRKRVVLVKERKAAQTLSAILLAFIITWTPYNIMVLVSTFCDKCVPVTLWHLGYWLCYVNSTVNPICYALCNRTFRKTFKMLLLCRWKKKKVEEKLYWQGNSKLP
In short: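 Agonist-mode calcium flux: 11-point dose responses, triplicate wells, fluorescence followed for 3 minutes. Cells are M3_CHO or M5_CHO lines (human receptors) with Ca++ indicator in probenecid-containing HEPES/HBSS buffer. Percent activity is referenced to carbachol EC100, and curves come from four-parameter nonlinear regression.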

[2] = target: T2, Cloned human M1 receptor (CHRM1) stably expressed in HEK293 cells (Homo sapiens, UniProt P11229); assay: CHRM1 Ca++ Flux Assay (agonist mode, FDSS 7000EX); assay type: cell-based; conditions: for Emax: HEK293, Percent Activity, read-out: M1 FDSS PA; for EC50: geometric mean if tested more than once
T2 construct: expressed in transfected cells; host or cells: HEK293
T2 sequence (P11229 1-460): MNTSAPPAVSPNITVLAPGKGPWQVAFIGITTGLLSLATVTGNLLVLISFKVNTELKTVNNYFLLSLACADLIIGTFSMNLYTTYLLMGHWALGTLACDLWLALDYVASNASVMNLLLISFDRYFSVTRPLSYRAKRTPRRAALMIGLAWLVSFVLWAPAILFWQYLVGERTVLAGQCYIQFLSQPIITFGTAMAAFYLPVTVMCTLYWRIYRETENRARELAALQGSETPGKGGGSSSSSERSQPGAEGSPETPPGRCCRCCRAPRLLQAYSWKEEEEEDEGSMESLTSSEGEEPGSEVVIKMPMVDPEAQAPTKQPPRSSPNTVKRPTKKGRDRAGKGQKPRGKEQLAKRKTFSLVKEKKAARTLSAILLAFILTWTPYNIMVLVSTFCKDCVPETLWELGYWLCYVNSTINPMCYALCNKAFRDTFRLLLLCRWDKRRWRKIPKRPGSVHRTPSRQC
In short: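 Compounds tested as agonists at 11 concentrations in triplicate, with calcium traces captured over 3 minutes. Cells were HEK293 with stable human CHRM1 expression, plated overnight at 25K/well and loaded with calcium dye. Responses normalized to carbachol EC100 and fitted by four-parameter nonlinear regression.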

Row | Emax [1] [%] | EC50 [1] [nM] | Emax [2] [%] | EC50 [2] [nM] | SMILES
1 | 0 | > 25000 | 97 | 46 | Fc1ccc(C2CCOC2)c(C2CCN([C@@H]3CCC4(C3)CN(c3nnco3)C4)CC2)c1 (mixture of isomers) [Example 2J, 2-((6R)-6-(4-(5-fluoro-2-(tetrahydrofuran-3-yl)phenyl)piperidin-1-yl)-2-azaspiro[3.4]octan-2-yl)-1,3,4-oxadiazole]
2 | 0 | > 25000 | 0 | > 25000 | O=C(C1COC1)N1CC2(CC[C@H](N3CCC(c4ccccc4OC(F)(F)F)CC3)C2)C1 (single isomer, unassigned) [Example 8G]
3 | 0 | > 25000 | 0 | 6440 | O=C(N1CC2(CC[C@H](N3CCC(c4ccccc4C4CCOCC4)CC3)C2)C1)C1(F)CC1 (single isomer, unassigned) [Example 9M]
4 | 0 | > 25000 | 21 | 3920 | c1ccc(C2CCN([C@H]3CCC4(C3)CN(c3nnco3)C4)CC2)c(C2CCOCC2)c1 (single isomer, unassigned) [Example 10T]
5 | 0 | > 25000 | 63 | 237 | c1ccc(C2CCN([C@@H]3CCC4(C3)CN(c3nnco3)C4)CC2)c(OC2CC3(COC3)C2)c1 [Example 1A, (R)-2-(6-(4-(2-((2-oxaspiro[3.3]heptan-6-yl)oxy)phenyl)piperidin-1-yl)-2-azaspiro[3.4]octan-2-yl)-1,3,4-oxadiazole]
6 | 0 | 4390 | 89 | 19 | c1ccc(C2CCN([C@@H]3CCC4(C3)CN(c3nnco3)C4)CC2)c(OC2COC2)c1 [Example 1D, (R)-2-(6-(4-(2-(oxetan-3-yloxy)phenyl)piperidin-1-yl)-2-azaspiro[3.4]octan-2-yl)-1,3,4-oxadiazole]
7 | 0 | > 25000 | 85 | 57 | c1ccc(C2CCN([C@@H]3CCC4(C3)CN(c3nnco3)C4)CC2)c(OC[C@@H]2COCCO2)c1 [Example 1E, 2-((R)-6-(4-(2-(((S)-1,4-dioxan-2-yl)methoxy)phenyl)piperidin-1-yl)-2-azaspiro[3.4]octan-2-yl)-1,3,4-oxadiazole]
8 | 0 | > 25000 | 79 | 31 | CC(C)(O)CCOc1ccccc1C1CCN([C@@H]2CCC3(C2)CN(c2nnco2)C3)CC1 [Example 1F]
9 | 0 | > 25000 | 80 | 72 | c1ccc(C2CCN([C@@H]3CCC4(C3)CN(c3nncs3)C4)CC2)c(OCC2COC2)c1 [Example 1G, (R)-2-(6-(4-(2-(oxetan-3-ylmethoxy)phenyl)piperidin-1-yl)-2-azaspiro[3.4]octan-2-yl)-1,3,4-thiadiazole]
10 | 10 | 2020 | 88 | 48 | FC1(COc2ccccc2C2CCN([C@@H]3CCC4(C3)CN(c3nncs3)C4)CC2)COC1 [Example 1H, (R)-2-(6-(4-(2-((3-fluorooxetan-3-yl)methoxy)phenyl)piperidin-1-yl)-2-azaspiro[3.4]octan-2-yl)-1,3,4-thiadiazole]
11 | 0 | > 25000 | 55 | 616 | c1ccc(C2CCN([C@@H]3CCC4(C3)CN(c3nncs3)C4)CC2)c(OCC2CCOCC2)c1 [Example 1I, (R)-2-(6-(4-(2-((tetrahydro-2H-pyran-4-yl)methoxy)phenyl)piperidin-1-yl)-2-azaspiro[3.4]octan-2-yl)-1,3,4-thiadiazole]
12 | 0 | > 25000 | 78 | 182 | FC1(COc2ccccc2C2CCN([C@@H]3CCC4(C3)CN(c3nncs3)C4)CC2)CCOCC1 [Example 1J, (R)-2-(6-(4-(2-((4-fluorotetrahydro-2H-pyran-4-yl)methoxy)phenyl)piperidin-1-yl)-2-azaspiro[3.4]octan-2-yl)-1,3,4-thiadiazole]
13 | 0 | > 25000 | 85 | 24 | c1ccc(C2CCN([C@@H]3CCC4(C3)CN(c3cncnc3)C4)CC2)c(OC2COC2)c1 [Example 1K, (R)-6-(4-(2-(oxetan-3-yloxy)phenyl)piperidin-1-yl)-2-(pyrimidin-5-yl)-2-azaspiro[3.4]octane]
14 | 0 | > 25000 | 42 | 166 | c1ccc(C2CCN([C@@H]3CCC4(C3)CN(c3cncnc3)C4)CC2)c(OC2CCOCC2)c1 [Example 1L, (R)-2-(pyrimidin-5-yl)-6-(4-(2-((tetrahydro-2H-pyran-4-yl)oxy)phenyl)piperidin-1-yl)-2-azaspiro[3.4]octane]
15 | 0 | > 25000 | 11 | 1550 | c1ccc(C2CCN([C@@H]3CCC4(C3)CN(c3cncnc3)C4)CC2)c(OCC2CCOCC2)c1 [Example 1M, (R)-2-(pyrimidin-5-yl)-6-(4-(2-((tetrahydro-2H-pyran-4-yl)methoxy)phenyl)piperidin-1-yl)-2-azaspiro[3.4]octane]
16 | 0 | > 25000 | 70 | 69 | c1ccc(C2CCN([C@@H]3CCC4(C3)CN(c3cncnc3)C4)CC2)c(OCC2COC2)c1 [Example 1N, (R)-6-(4-(2-(oxetan-3-ylmethoxy)phenyl)piperidin-1-yl)-2-(pyrimidin-5-yl)-2-azaspiro[3.4]octane]
17 | 0 | > 25000 | 0 | > 25000 | c1ccc(C2CCN([C@@H]3CCC4(C3)CN(c3cncnc3)C4)CC2)c(OC2CC3(COC3)C2)c1 [Example 1O, (R)-6-(4-(2-((2-oxaspiro[3.3]heptan-6-yl)oxy)phenyl)piperidin-1-yl)-2-(pyrimidin-5-yl)-2-azaspiro[3.4]octane]
18 | 0 | > 25000 | 43 | 98 | c1ccc(C2CCN([C@@H]3CCC4(C3)CN(c3cncnc3)C4)CC2)c(O[C@@H]2CCOC2)c1 [Example 1P, (R)-2-(pyrimidin-5-yl)-6-(4-(2-(((R)-tetrahydrofuran-3-yl)oxy)phenyl)piperidin-1-yl)-2-azaspiro[3.4]octane]
19 | 0 | > 25000 | 74 | 147 | CC(C)(O)COc1ccccc1C1CCN([C@@H]2CCC3(C2)CN(c2nnco2)C3)CC1 [Example 2A, (R)-1-(2-(1-(2-(1,3,4-oxadiazol-2-yl)-2-azaspiro[3.4]octan-6-yl)piperidin-4-yl)phenoxy)-2-methylpropan-2-ol]
20 | 0 | > 25000 | 107 | 36 | c1ccc(C2CCN([C@@H]3CCC4(C3)CN(c3nnco3)C4)CC2)c(O[C@@H]2CCOC2)c1 [Example 2B, 2-((R)-6-(4-(2-(((R)-tetrahydrofuran-3-yl)oxy)phenyl)piperidin-1-yl)-2-azaspiro[3.4]octan-2-yl)-1,3,4-oxadiazole]
21 | 0 | > 25000 | 79 | 59 | COCCOc1ccccc1C1CCN([C@@H]2CCC3(C2)CN(c2nnco2)C3)CC1 [Example 2C]
22 | 0 | > 25000 | – | – | COc1ccc(F)cc1C1CCN([C@@H]2CCC3(C2)CN(C(=O)C2COC2)C3)CC1 [Example 6A, (R)-(6-(4-(5-fluoro-2-methoxyphenyl)piperidin-1-yl)-2-azaspiro[3.4]octan-2-yl)(oxetan-3-yl)methanone]
23 | 0 | – | – | – | CCOc1ccccc1C1CCN([C@@H]2CCC3(C2)CN(C(=O)C2COC2)C3)CC1 [Example 7J, (R)-(6-(4-(2-ethoxyphenyl)piperidin-1-yl)-2-azaspiro[3.4]octan-2-yl)(oxetan-3-yl)methanone]
